Activity calls are given as the source filed them. No cut-off for these calls is given here.
Columns and labels:
Rattus norvegicus = assay: Analgesic activity in Chronic constriction injury rat model assessed as decrease in hyperalgesia at 300 microg/kg,IM administrated every 2 hrs and measured after 24 hrs; assay type: functional, organism-based; conditions: dose 300.0 µg/kg
[1] = target: Neuronal acetylcholine receptor; alpha9/alpha10 (Homo sapiens, UniProt Q9GZZ6+Q9UGM1); assay: Antagonist activity at human alpha9alpha10 nAChR expressed in acetylcholine-induced Xenopus laevis oocytes assessed as inhibition of acetylcholine-induced current by two electrode voltage-clamp assay; assay type: cell-based, Oocyte
[2] = target: Voltage-dependent N-type calcium channel subunit alpha-1B (Homo sapiens, UniProt Q00975); assay: Inhibition of human Cav2.2 channel transfected in HEK293T cells co-expressed with human GABAB receptor assessed as inhibition of Cav2.2-mediated Ba2+ current measured for 3 to 5 days by whole-cell patch clamp assay; assay type: cell-based
Sequence of Voltage-dependent N-type calcium channel subunit alpha-1B (Q00975 whole entry): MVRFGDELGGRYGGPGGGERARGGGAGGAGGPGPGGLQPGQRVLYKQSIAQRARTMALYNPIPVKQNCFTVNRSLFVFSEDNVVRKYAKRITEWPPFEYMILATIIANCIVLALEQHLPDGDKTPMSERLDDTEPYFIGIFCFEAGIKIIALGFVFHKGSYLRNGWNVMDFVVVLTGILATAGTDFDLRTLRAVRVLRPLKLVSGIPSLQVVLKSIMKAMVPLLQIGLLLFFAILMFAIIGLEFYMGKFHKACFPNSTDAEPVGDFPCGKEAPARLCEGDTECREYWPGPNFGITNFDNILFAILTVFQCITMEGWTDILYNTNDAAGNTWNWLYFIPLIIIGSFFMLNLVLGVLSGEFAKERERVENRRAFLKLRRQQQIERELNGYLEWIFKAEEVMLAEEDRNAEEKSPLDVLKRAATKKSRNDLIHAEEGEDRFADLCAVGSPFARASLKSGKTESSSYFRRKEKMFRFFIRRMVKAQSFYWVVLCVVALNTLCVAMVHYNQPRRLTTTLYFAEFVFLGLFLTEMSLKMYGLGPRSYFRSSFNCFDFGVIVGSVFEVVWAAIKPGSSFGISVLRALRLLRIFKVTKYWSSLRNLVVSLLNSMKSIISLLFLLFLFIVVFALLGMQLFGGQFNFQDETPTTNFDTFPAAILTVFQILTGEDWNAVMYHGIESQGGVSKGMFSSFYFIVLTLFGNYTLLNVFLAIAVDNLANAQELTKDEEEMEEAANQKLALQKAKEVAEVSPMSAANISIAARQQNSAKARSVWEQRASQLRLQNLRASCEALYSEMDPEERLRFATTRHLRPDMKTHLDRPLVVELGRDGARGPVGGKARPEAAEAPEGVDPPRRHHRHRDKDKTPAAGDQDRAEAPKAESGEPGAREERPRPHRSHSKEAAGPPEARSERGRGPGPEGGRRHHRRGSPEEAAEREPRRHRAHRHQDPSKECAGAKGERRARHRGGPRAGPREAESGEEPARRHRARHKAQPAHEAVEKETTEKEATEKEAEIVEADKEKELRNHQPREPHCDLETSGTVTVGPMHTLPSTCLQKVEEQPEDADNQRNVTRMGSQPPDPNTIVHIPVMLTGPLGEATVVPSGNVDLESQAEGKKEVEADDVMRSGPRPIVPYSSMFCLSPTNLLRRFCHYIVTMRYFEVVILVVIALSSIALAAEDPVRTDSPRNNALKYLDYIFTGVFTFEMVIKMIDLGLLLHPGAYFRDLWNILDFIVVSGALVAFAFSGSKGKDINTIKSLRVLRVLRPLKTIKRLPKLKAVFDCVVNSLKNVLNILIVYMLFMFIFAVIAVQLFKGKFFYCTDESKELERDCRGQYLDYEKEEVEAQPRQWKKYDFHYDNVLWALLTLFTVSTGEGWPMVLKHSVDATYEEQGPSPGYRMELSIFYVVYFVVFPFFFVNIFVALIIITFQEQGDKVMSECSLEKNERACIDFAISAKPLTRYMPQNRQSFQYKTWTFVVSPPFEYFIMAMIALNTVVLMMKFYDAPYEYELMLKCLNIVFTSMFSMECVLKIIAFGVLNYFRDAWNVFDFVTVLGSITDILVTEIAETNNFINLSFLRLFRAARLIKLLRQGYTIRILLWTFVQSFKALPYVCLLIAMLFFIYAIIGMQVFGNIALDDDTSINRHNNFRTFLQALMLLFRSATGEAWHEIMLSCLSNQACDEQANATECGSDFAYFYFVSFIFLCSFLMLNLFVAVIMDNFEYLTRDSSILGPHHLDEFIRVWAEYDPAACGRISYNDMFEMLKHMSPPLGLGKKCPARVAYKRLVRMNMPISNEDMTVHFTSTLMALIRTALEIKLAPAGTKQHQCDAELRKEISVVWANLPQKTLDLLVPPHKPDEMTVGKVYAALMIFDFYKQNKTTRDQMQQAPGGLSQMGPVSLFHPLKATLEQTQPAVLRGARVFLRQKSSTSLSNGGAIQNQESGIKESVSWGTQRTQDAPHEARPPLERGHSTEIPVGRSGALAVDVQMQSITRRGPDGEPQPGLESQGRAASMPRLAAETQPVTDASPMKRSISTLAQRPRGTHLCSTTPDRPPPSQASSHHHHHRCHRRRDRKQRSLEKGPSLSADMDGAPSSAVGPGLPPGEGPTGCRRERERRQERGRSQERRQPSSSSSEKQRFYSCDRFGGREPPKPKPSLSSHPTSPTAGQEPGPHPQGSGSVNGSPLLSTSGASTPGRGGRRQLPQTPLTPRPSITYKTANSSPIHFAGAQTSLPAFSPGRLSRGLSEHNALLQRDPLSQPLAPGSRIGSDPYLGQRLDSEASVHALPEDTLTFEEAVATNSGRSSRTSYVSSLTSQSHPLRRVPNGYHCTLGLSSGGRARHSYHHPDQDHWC

Sequence of Neuronal acetylcholine receptor; alpha9/alpha10 (Q9UGM1 whole entry): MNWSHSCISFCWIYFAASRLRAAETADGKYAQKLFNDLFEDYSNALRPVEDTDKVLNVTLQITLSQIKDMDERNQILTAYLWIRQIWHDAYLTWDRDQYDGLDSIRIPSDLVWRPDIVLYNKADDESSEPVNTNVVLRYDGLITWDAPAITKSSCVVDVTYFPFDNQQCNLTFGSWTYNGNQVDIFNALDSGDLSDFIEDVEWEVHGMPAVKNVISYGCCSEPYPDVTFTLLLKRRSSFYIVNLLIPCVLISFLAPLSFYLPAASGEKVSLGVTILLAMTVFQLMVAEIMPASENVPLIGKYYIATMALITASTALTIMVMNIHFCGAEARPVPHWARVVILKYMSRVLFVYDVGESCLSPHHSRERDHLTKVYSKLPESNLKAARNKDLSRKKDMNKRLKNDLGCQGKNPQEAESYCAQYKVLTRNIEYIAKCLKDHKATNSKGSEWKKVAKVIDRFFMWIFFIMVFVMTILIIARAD
Sequence of Neuronal acetylcholine receptor; alpha9/alpha10 (Q9GZZ6 whole entry): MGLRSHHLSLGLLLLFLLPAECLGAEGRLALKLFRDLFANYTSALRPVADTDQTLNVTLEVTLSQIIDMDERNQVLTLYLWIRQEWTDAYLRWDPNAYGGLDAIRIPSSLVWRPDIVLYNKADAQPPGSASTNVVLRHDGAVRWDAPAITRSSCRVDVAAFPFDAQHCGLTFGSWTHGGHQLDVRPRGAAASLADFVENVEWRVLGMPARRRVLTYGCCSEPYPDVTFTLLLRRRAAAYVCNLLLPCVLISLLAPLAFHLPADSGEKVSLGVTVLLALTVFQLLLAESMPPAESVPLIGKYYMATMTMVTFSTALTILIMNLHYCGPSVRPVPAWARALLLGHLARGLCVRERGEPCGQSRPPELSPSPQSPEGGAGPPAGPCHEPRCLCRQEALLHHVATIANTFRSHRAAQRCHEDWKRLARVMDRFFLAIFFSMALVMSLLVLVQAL

Q: Which Activity (Rattus norvegicus) does the source give for `C[C@@H](O)[C@@H]1NC(=O)[C@@H]2CSSC[C@@H](C(=O)N[C@@H](Cc3ccc(O)cc3)C(=O)O)NC(=O)[C@H](CCC(N)=O)NC(=O)[C@H](Cc3ccc(O)c(I)c3)NC(=O)[C@H](CCCNC(=N)N)NC(=O)[C@H](CSSC[C@H](NC(=O)CN)C(=O)N2)NC(=O)[C@H](CCCNC(N)=O)NC(=O)[C@@H]2CCCN2C(=O)[C@H](CC(=O)O)NC1=O` here?
A: Active

Q: With `CC[C@H](C)[C@@H]1NC(=O)[C@H](CCCNC(=N)N)NC(=O)[C@H](CCCNC(=N)N)NC(=O)[C@@H]2CSSC[C@H](NC(=O)[C@H](N)[C@H](C)O)C(=O)N[C@@H](CCCNC(=N)N)C(=O)N[C@@H](CO)C(=O)N[C@@H](CO)C(=O)NCC(=O)N[C@@H](CCCNC(=N)N)C(=O)N[C@@H](Cc3ccc(O)cc3)C(=O)N[C@H](CSSC[C@H](C(=O)N[C@H](C(N)=O)C(C)C)NC(=O)[C@H](C)NC(=O)[C@H](CC(=O)O)NC(=O)[C@H]([C@@H](C)O)NC1=O)C(=O)N[C@@H](CCCNC(=N)N)C(=O)N[C@@H](CO)C(=O)N1CCC[C@H]1C(=O)N[C@@H](Cc1ccc(O)cc1)C(=O)N[C@@H](CC(=O)O)C(=O)N[C@@H](CCCNC(=N)N)C(=O)N[C@@H](CCCNC(=N)N)C(=O)N[C@@H](CCCNC(=N)N)C(=O)N[C@@H](CCCNC(=N)N)C(=O)N[C@@H](Cc1ccc(O)cc1)C(=O)N2` as the molecule, how does the IC50 [1] read?
A: 116 nM

Q: And the IC50 [2]?
A: 3 nM
